Reference: patent publication US11866430B2, “Naphthyridinone compounds useful as T cell activators” (priority 2018, dated 2024)

What was measured:
[1] = biological target: human DGKα (Homo sapiens (Human), UniProt P23743); assay: DGKα LIPGLO assay (extruded liposome substrate); assay type: biochemical
Outline: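 Human full-length DGKα, His-tagged and produced in Sf9 cells, assayed at 20 nM (4× stock) on extruded liposomes of PS, 0.25 mM DAG and 2.75 mM PC, preincubated 10 min. Reaction started with 300 μM ATP (stock) and ran 1 h in MOPS pH 7.5/MgCl2/CaCl2/DTT buffer.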

[2] = biological target: human DGKζ (Homo sapiens (Human), UniProt Q13574); assay: DGKζ LIPGLO assay (extruded liposome substrate); assay type: biochemical; settings: extruded liposome substrate; read-out: DGKζ LIPGLO IC50
human DGKζ, sequence (Q13574 other isoform, or with tags, fused parts or gaps): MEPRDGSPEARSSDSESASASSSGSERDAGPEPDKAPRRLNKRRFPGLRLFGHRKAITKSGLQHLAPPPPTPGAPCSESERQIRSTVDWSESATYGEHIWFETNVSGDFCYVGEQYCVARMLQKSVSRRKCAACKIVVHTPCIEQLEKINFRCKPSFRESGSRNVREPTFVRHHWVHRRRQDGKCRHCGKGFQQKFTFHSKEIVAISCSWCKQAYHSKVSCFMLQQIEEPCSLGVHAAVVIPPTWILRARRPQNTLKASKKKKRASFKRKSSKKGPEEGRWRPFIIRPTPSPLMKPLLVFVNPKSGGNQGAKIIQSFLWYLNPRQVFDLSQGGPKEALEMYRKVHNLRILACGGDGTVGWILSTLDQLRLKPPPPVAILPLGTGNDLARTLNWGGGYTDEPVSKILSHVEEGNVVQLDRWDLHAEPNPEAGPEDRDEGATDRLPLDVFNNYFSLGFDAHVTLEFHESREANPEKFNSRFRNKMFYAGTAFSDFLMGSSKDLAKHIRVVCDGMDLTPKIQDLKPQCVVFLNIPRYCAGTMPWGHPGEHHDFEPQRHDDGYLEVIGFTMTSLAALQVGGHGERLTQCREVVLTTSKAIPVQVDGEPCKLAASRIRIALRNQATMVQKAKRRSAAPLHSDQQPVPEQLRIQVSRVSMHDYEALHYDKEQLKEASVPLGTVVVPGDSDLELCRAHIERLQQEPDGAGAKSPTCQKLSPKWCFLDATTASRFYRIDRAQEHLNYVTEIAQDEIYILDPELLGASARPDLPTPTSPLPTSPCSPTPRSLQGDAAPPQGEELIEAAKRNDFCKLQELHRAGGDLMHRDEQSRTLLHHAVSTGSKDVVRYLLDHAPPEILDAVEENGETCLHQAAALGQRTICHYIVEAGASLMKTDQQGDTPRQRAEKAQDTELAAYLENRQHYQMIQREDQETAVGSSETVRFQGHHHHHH
Outline: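 Recombinant DGKζ (Sf9-expressed, Ni/SEC/SP-purified) preincubated 10 min with extruded 100 nm PC/DAG/PS liposomes in 50 mM MOPS pH 7.5, 100 mM NaCl, 10 mM MgCl2, 1 μM CaCl2, 1 mM DTT. Started with 300 uM ATP solution (stock, pre-addition); 1 hr reaction. ADP-Glo luminescence; IC50 from 11 concentrations.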

[3] = tested on: naïve human CD8 T cells; assay: cells; settings: Homo sapiens, T-cell, read-out: HuCD8 INFG Normalized EC50, anti-CD3 plus anti-CD28 as baseline; 3 μM Example 40 co-stimulation as 100% activation
Description: Frozen naïve human CD8 T cells were thawed in ATM-V media, incubated for 2 h in 37° C., and counted. The 384-well tissue culture plate was coated overnight at 4° C. with 20 μl anti-human CD3 at 0.05 μg/mL in PBS, which was removed off the plate before 40,000 cells per 40 microliters CD8 T cells with 0.1 μg/mL soluble anti-human CD28 were added to each well. The compounds were transferred using an Echo liquid handler to the cell plate immediately after the cells were plated. After 20 h incubation at 37° C. incubator, 3 microliters per well supernatants transferred into a new 384-well white assay plate for cytokine measurement.
Interferon-γ (IFN-γ) was quantitated using the AlphaLISA kit (Cat #AL217) as described by the manufacturer manual (Perkin Elmer). The counts from each well were converted to IFN-γ concentration […].

human DGKα, sequence (P23743 other isoform, or with tags, fused parts or gaps): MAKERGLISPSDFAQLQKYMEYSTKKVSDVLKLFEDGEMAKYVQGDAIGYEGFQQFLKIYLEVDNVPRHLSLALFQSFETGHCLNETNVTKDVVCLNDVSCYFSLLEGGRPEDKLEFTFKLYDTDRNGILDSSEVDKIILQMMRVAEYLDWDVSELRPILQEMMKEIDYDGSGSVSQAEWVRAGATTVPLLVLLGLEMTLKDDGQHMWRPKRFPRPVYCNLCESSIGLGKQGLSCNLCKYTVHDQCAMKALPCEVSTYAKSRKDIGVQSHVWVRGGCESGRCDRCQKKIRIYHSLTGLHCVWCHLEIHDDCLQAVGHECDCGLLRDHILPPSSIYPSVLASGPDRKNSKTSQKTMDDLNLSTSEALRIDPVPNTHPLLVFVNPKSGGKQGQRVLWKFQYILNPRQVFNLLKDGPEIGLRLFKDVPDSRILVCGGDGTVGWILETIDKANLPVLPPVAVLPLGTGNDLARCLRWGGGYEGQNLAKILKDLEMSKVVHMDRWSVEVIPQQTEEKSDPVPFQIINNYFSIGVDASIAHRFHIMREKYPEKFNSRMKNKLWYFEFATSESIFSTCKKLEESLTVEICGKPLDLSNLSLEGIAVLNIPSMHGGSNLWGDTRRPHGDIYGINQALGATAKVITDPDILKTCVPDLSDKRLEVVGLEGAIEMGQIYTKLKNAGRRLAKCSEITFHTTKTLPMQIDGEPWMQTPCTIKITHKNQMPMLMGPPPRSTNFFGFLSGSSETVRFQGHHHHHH

Structure (SMILES)	IC50 [1] [µM]	IC50 [2] [µM]	EC50 [3] [µM]
Cc1ccc2c(n1)c(N1CCN(C(c3ccc(F)cc3)c3ccccn3)CC1)c(C#N)c(=O)n2C (stereo not drawn) [Example 256, 4-{4-[(4-fluorophenyl)(pyridin-2-yl)methyl]piperazin-1-yl}-1,6-dimethyl-2-oxo-1,2-dihydro-1,5-naphthyridine-3-carbonitrile]	2.7	10	0.24
Cn1c(=O)c(C#N)c(N2CCN(C(c3ccc(Cl)cc3)c3ccc(Cl)cc3)CC2)c2nc(Br)ccc21 [Example 393, 4-{4-[bis(4-chlorophenyl)methyl]piperazin-1-yl}-6-bromo-1-methyl-2-oxo-1,2-dihydro-1,5-naphthyridine-3-carbonitrile]	9	> 240	0.17
Cn1c(=O)c(C#N)c(N2CCN(C(c3ccc(Cl)cc3)c3ccc(Cl)cc3)CC2)c2nc(C#N)ccc21 [Example 394, 8-{4-[bis(4-chlorophenyl)methyl]piperazin-1-yl}-5-methyl-6-oxo-5,6-dihydro-1,5-naphthyridine-2,7-dicarbonitrile]	3.9	1.2	0.01
COc1ccc2c(n1)c(N1CCN(C(c3ccc(Cl)cc3)c3ccc(Cl)cc3)CC1)c(C#N)c(=O)n2C [Example 395, 4-{4-[bis(4-chlorophenyl)methyl]piperazin-1-yl}-6-methoxy-1-methy-2-oxo-1,2-dihydro-1,5-naphthyridine-3-carbonitrile]	14	3	0.09
COc1ccc2c(n1)c(N1CCN(C(c3ccc(F)cc3)c3cccnc3OC)CC1)c(C#N)c(=O)n2C (stereo not drawn) [Example 396, 4-{4-[(4-fluorophenyl)(2-methoxypyridin-3-yl)methyl]piperazin-1-yl}-6-methoxy-1-methyl-2-oxo-1,2-dihydro-1,5-naphthyridine-3-carbonitrile]	21	5.8	2.66
COc1ccc2c(n1)c(N1CCN(C(c3ccc(F)cc3)c3ncccc3OC)CC1)c(C#N)c(=O)n2C (stereo not drawn) [Example 397, 4-{4-[(4-fluorophenyl)(3-methoxypyridin-2-yl)methyl]piperazin-1-yl}-6-methoxy-1-methyl-2-oxo-1,2-dihydro-1,5-naphthyridine-3-carbonitrile]	16	13	4.47
Cn1c(=O)c(C#N)c(N2CCN(C(c3ccc(F)cc3)c3ccccn3)CC2)c2nc(C#N)ccc21 (stereo not drawn) [Example 400, 8-{4-[(4-fluorophenyl)(pyridin-2-yl)methyl]piperazin-1-yl}-5-methyl-6-oxo-5,6-dihydro-1,5-naphthyridine-2,7-dicarbonitrile]	5.4	2.1	0.05
COc1ccc2c(n1)c(N1CCN(C(c3ncccn3)c3ccc(F)cc3OC)CC1)c(C#N)c(=O)n2C (stereo not drawn) [Example 401, 4-{4-[(4-fluoro-2-methoxyphenyl)(pyrimidin-2-yl)methyl]piperazin-1-yl}-6-methoxy-1-methyl-2-oxo-1,2-dihydro-1,5-naphthyridine-3-carbonitrile]	81	7.6	10
COc1ccc2c(n1)c(N1CCN(C(c3ccc(F)cc3OC)c3ccc(F)cc3OC)CC1)c(C#N)c(=O)n2C [Example 402, 4-{4-[bis(4-fluoro-2-methoxyphenyl)methyl]piperazin-1-yl}-6-methoxy-1-methyl-2-oxo-1,2-dihydro-1,5-naphthyridine-3-carbonitrile]	160	3.5	1.78
COc1ccc2c(n1)c(N1CCN(C(c3ccc(F)cc3)c3ccccn3)CC1)c(C#N)c(=O)n2C (stereo not drawn) [Example 403, 4-{4-[(4-fluorophenyl)(pyridin-2-yl)methyl]piperazin-1-yl}-6-methoxy-1-methyl-2-oxo-1,2-dihydro-1,5-naphthyridine-3-carbonitrile]	26	5.7	1.49
COc1cccnc1C(c1ccc(F)cc1)N1CCN(c2c(C#N)c(=O)n(C)c3ccc(C#N)nc23)CC1 (stereo not drawn) [Example 410, 8-{4-[(4-fluorophenyl)(3-methoxypyridin-2-yl)methyl]piperazin-1-yl}-5-methyl-6-oxo-5,6-dihydro-1,5-naphthyridine-2,7-dicarbonitrile]	5.4	2.2	0.09
Cn1c(=O)c(C#N)c(N2CCN(C(c3ccccc3)c3ccc(F)cc3)CC2)c2nc(C#N)ccc21 (stereo not drawn) [Example 411, 8-{4-[(4-fluorophenyl)(phenyl)methyl]piperazin-1-yl}-5-methyl-6-oxo-5,6-dihydro-1,5-naphthyridine-2,7-dicarbonitrile]	4.9	1.4	0.02
Cn1c(=O)c(C#N)c(N2CCN([C@@H](c3ccccc3)c3ccc(Cl)cc3)CC2)c2nc(C#N)ccc21 [Example 414, 8-{4-[(S)-(4-chlorophenyl)(phenyl)methyl]piperazin-1-yl}-5-methyl-6-oxo-5,6-dihydro-1,5-naphthyridine-2,7-dicarbonitrile]	9	1.5	0.16
COc1cc(C)ccc1C(c1ccc(F)cc1)N1CCN(c2c([N+](=O)[O-])c(=O)n(C)c3ccc(C#N)nc23)CC1 (stereo not drawn) [Example 416, 8-{4-[(4-fluorophenyl)(2-methoxy-4-methylphenyl)methyl]piperazin-1-yl}-5-methyl-7-nitro-6-oxo-5,6-dihydro-1,5-naphthyridine-2-carbonitrile]	4.8	0.91	0.03
Cn1c(=O)cc(N2CCN(C(c3ccc(F)cc3)c3ccc(F)cc3)CC2)c2nc(C#N)ccc21 [Example 432, 8-{4-[bis(4-fluorophenyl)methyl]piperazin-1-yl}-5-methyl-6-oxo-5,6-dihydro-1,5-naphthyridine-2-carbonitrile]	> 240	5.4	0.06
